Test results as given in the kinase profiling compilation of Christmann-Franck et al. (2016).

Legend:
Experiment in all cases: radiometric filter-binding kinase assay
[1] = system: AKT2 (human), P31751 [S474D]
BTK (human) = BTK (human) (UniProt Q06187)
CDK2 CCNA2 (human) = CDK2 CCNA2 (human) (UniProt P20248+P24941)
CHEK2 (human) = CHEK2 (human) (UniProt O96017)
CSK (human) = CSK (human) (UniProt P41240)
CSNK1D (human) = CSNK1D (human) (UniProt P48730)
EPHA4 (human) = EPHA4 (human) (UniProt P54764)
EPHB1 (human) = EPHB1 (human) (UniProt P54762)
EPHB4 (human) = EPHB4 (human) (UniProt P54760)
FLT1 (human) = FLT1 (human) (UniProt P17948)
IKBKB (human) = IKBKB (human) (UniProt O14920)
IKBKE (human) = IKBKE (human) (UniProt Q14164)
INSRR (human) = INSRR (human) (UniProt P14616)
MAP2K1 (human) = MAP2K1 (human) (UniProt Q02750)
MAPK1 (human) = MAPK1 (human) (UniProt P28482)
MAPK14 (human) = MAPK14 (human) (UniProt Q16539)
MAPK15 (human) = MAPK15 (human) (UniProt Q8TD08)
MAPK3 (human) = MAPK3 (human) (UniProt P27361)
MAPKAPK3 (human) = MAPKAPK3 (human) (UniProt Q16644)
MKNK2 (human) = MKNK2 (human) (UniProt Q9HBH9)
NEK2 (human) = NEK2 (human) (UniProt P51955)
NEK6 (human) = NEK6 (human) (UniProt Q9HC98)
PAK7 (human) = PAK7 (human) (UniProt Q9P286)
PIM2 (human) = PIM2 (human) (UniProt Q9P1W9); conditions: compound 1.0 µM
PLK1 (human) = PLK1 (human) (UniProt P53350)
PRKACA (human) = PRKACA (human) (UniProt P17612)
RIPK2 (human) = RIPK2 (human) (UniProt O43353)
RPS6KA1 KD1 KD2 (human) = RPS6KA1 KD1 KD2 (human) (UniProt Q15418)
RPS6KA3 KD1 KD2 (human) = RPS6KA3 KD1 KD2 (human) (UniProt P51812)
RPS6KA5 KD1 KD2 (human) = RPS6KA5 KD1 KD2 (human) (UniProt O75582)
[2] = system: RPS6KB1 (human), P23443 [T412E]
SRC (human) = SRC (human) (UniProt P12931)
SYK (human) = SYK (human) (UniProt P43405)
TTK (human) = TTK (human) (UniProt P33981)

Chain of MKNK2 (human) (Q9HBH9 whole entry, looked up): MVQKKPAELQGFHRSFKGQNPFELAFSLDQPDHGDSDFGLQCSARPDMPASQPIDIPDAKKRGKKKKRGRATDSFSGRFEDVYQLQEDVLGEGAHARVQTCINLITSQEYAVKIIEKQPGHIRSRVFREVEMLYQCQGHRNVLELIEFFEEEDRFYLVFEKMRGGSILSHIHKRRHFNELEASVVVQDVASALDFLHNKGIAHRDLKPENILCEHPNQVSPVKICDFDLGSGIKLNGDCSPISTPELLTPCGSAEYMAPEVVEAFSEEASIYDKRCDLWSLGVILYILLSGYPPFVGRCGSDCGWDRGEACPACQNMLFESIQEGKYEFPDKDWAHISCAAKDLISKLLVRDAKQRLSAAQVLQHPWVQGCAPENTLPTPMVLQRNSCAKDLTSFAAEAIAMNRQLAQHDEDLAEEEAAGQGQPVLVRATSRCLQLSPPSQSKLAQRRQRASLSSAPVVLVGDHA
Chain of PAK7 (human) (Q9P286 whole entry, looked up): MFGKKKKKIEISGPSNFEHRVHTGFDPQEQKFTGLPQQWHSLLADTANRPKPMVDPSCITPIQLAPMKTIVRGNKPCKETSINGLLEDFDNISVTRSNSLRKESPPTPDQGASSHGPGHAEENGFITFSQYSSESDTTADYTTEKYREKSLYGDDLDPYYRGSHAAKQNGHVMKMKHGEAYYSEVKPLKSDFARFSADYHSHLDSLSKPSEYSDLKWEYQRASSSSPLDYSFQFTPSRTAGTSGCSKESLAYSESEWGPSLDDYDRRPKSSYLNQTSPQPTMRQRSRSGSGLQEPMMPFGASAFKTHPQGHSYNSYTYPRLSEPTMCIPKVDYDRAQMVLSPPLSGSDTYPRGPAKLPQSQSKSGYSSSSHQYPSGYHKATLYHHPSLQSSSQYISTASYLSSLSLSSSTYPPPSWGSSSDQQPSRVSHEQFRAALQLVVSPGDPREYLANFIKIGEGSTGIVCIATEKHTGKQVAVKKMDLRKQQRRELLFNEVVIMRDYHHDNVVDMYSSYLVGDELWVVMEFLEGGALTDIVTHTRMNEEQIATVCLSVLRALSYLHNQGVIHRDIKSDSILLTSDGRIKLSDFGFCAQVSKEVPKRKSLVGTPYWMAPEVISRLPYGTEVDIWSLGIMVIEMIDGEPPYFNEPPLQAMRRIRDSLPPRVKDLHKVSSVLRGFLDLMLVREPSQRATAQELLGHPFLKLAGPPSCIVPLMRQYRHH
Chain of INSRR (human) (P14616 whole entry, looked up): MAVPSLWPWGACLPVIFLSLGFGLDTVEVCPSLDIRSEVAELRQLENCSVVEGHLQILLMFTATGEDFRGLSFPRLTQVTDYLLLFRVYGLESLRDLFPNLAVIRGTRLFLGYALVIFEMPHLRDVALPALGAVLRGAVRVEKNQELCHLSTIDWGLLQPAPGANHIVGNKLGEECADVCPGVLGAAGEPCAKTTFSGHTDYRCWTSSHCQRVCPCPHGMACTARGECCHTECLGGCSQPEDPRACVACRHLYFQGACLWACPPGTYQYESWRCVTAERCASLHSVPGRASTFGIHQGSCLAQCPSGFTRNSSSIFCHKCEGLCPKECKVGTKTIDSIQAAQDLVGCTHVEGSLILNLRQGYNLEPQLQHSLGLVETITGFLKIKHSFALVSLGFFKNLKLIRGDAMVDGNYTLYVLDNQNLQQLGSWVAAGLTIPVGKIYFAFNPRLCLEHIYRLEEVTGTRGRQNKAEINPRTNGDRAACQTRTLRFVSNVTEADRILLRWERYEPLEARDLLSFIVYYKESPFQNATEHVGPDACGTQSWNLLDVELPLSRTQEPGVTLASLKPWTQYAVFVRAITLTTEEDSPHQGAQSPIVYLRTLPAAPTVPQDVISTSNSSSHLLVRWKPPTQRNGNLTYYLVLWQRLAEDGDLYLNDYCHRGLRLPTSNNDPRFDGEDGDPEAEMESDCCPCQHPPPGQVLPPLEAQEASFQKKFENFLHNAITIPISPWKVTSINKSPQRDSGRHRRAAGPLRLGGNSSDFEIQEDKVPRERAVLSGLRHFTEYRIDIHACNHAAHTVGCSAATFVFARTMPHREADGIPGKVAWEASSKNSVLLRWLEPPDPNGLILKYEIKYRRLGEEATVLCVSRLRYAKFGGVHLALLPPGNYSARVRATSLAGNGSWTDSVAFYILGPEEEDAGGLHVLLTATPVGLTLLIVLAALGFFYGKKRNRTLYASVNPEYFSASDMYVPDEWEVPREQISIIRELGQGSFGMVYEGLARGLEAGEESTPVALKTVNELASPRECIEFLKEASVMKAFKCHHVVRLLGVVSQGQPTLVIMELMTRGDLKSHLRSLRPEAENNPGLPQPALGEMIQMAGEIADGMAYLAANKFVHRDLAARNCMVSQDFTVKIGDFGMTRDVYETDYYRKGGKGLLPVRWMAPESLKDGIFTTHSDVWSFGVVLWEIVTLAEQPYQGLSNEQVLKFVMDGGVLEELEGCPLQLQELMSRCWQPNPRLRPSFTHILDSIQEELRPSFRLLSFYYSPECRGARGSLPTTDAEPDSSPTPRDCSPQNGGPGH
Chain of BTK (human) (Q06187 whole entry, looked up): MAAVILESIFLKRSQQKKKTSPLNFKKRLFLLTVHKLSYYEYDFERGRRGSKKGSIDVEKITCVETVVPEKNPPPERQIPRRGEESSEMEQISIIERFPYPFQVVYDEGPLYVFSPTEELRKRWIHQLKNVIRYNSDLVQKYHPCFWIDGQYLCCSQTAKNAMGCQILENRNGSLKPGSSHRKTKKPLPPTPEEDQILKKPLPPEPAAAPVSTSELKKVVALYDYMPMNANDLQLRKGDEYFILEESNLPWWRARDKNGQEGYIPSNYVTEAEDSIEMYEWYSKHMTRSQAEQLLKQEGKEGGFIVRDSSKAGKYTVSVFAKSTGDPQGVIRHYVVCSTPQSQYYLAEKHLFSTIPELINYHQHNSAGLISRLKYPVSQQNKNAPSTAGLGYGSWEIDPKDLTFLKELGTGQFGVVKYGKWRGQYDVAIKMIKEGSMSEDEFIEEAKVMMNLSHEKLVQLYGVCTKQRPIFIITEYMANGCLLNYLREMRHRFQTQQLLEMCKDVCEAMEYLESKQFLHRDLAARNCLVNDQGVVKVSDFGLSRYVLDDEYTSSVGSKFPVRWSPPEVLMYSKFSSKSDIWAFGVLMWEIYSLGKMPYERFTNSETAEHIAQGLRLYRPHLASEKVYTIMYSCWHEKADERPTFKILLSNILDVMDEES
Chain of EPHB1 (human) (P54762 whole entry, looked up): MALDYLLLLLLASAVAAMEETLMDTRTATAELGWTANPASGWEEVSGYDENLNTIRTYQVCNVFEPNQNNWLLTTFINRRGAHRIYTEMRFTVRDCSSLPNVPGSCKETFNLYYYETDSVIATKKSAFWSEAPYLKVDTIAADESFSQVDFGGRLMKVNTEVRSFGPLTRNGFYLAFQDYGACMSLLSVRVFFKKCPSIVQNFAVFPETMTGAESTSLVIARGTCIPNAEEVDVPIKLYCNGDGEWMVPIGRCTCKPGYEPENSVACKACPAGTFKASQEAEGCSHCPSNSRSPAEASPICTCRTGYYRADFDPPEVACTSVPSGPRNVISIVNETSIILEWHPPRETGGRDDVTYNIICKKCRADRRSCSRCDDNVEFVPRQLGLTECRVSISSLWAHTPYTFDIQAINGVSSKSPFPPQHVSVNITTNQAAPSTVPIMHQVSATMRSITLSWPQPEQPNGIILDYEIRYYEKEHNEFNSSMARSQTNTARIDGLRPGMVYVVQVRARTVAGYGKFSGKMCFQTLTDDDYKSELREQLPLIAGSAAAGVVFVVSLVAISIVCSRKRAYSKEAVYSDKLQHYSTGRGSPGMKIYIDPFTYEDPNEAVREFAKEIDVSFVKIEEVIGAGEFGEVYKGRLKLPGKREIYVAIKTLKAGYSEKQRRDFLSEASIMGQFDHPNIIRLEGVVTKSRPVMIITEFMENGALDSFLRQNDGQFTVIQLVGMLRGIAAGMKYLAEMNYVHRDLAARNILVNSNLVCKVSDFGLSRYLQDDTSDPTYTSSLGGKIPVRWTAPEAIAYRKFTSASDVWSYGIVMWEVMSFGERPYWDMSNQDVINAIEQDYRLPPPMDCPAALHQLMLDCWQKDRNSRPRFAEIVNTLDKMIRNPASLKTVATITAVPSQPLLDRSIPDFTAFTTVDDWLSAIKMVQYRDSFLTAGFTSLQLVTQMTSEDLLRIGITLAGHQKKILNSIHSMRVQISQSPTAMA
Chain of SRC (human) (P12931 whole entry, looked up): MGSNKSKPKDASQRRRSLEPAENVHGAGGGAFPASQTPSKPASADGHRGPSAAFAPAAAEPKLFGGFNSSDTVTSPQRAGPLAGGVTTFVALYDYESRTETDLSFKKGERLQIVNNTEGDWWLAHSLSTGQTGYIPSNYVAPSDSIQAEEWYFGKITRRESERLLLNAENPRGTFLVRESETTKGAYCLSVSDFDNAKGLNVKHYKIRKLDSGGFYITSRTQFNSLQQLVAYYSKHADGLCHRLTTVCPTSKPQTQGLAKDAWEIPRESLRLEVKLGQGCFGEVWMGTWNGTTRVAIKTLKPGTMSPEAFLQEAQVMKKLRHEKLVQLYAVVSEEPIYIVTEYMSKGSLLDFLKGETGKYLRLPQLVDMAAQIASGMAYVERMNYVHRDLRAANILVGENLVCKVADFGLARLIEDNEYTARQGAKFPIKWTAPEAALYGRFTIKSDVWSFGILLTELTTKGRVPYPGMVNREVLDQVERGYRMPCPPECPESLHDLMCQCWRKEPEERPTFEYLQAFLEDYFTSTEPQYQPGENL
Chain of MAP2K1 (human) (Q02750 whole entry, looked up): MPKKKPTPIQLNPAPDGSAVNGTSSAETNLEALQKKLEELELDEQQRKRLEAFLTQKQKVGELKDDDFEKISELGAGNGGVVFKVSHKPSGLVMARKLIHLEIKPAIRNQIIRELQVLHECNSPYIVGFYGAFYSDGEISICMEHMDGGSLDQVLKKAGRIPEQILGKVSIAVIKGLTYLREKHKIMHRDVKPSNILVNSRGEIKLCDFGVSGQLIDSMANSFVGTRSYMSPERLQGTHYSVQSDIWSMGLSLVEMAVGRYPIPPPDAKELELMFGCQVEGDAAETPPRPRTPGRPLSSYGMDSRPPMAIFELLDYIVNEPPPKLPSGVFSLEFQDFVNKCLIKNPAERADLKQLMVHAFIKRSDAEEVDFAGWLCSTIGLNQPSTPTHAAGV

## COc1ccc(N(C(=O)Nc2c(C)cccc2C)c2cc(Nc3ccc(N4CCN(C)CC4)cc3)ncn2)c(OC)c1
[1]; compound 0.01 µM
  residual activity: 83%
[1]; compound 0.1 µM
  residual activity: 83%
[1]; compound 1.0 µM
  residual activity: 75%
BTK (human); compound 0.01 µM
  residual activity: 91%
BTK (human); compound 0.1 µM
  residual activity: 38%
BTK (human); compound 1.0 µM
  residual activity: 21%
CDK2 CCNA2 (human); compound 0.01 µM
  residual activity: 120%
CDK2 CCNA2 (human); compound 0.1 µM
  residual activity: 121%
CDK2 CCNA2 (human); compound 1.0 µM
  residual activity: 106%
CHEK2 (human); compound 0.01 µM
  residual activity: 89%
CHEK2 (human); compound 0.1 µM
  residual activity: 75%
CHEK2 (human); compound 1.0 µM
  residual activity: 34%
CSK (human); compound 0.01 µM
  residual activity: 119%
CSK (human); compound 0.1 µM
  residual activity: 101%
CSK (human); compound 1.0 µM
  residual activity: 38%
CSNK1D (human); compound 0.01 µM
  residual activity: 89%
CSNK1D (human); compound 0.1 µM
  residual activity: 85%
CSNK1D (human); compound 1.0 µM
  residual activity: 79%
EPHA4 (human); compound 0.01 µM
  residual activity: 71%
EPHA4 (human); compound 0.1 µM
  residual activity: 12%
EPHA4 (human); compound 1.0 µM
  residual activity: 6%
EPHB1 (human); compound 0.01 µM
  residual activity: 62%
EPHB1 (human); compound 0.1 µM
  residual activity: 49%
EPHB1 (human); compound 1.0 µM
  residual activity: 2%
EPHB4 (human); compound 0.01 µM
  residual activity: 110%
EPHB4 (human); compound 0.1 µM
  residual activity: 80%
EPHB4 (human); compound 1.0 µM
  residual activity: 5%
FLT1 (human); compound 0.01 µM
  residual activity: 95%
FLT1 (human); compound 0.1 µM
  residual activity: 64%
FLT1 (human); compound 1.0 µM
  residual activity: 15%
IKBKB (human); compound 0.01 µM
  residual activity: 83%
IKBKB (human); compound 0.1 µM
  residual activity: 95%
IKBKB (human); compound 1.0 µM
  residual activity: 99%
IKBKE (human); compound 0.1 µM
  residual activity: 94%
IKBKE (human); compound 1.0 µM
  residual activity: 102%
INSRR (human); compound 0.01 µM
  residual activity: 113%
INSRR (human); compound 0.1 µM
  residual activity: 112%
INSRR (human); compound 1.0 µM
  residual activity: 107%
MAP2K1 (human); compound 0.01 µM
  residual activity: 107%
MAP2K1 (human); compound 0.1 µM
  residual activity: 106%
MAP2K1 (human); compound 1.0 µM
  residual activity: 97%
MAPK1 (human); compound 0.01 µM
  residual activity: 103%
MAPK1 (human); compound 0.1 µM
  residual activity: 110%
MAPK1 (human); compound 1.0 µM
  residual activity: 109%
MAPK14 (human); compound 0.01 µM
  residual activity: 121%
MAPK14 (human); compound 0.1 µM
  residual activity: 79%
MAPK14 (human); compound 1.0 µM
  residual activity: 26%
MAPK15 (human); compound 0.01 µM
  residual activity: 108%
MAPK15 (human); compound 0.1 µM
  residual activity: 112%
MAPK15 (human); compound 1.0 µM
  residual activity: 94%
MAPK3 (human); compound 0.01 µM
  residual activity: 104%
MAPK3 (human); compound 0.1 µM
  residual activity: 101%
MAPK3 (human); compound 1.0 µM
  residual activity: 95%
MAPKAPK3 (human); compound 0.01 µM
  residual activity: 96%
MAPKAPK3 (human); compound 0.1 µM
  residual activity: 90%
MAPKAPK3 (human); compound 1.0 µM
  residual activity: 75%
MKNK2 (human); compound 0.01 µM
  residual activity: 107%
MKNK2 (human); compound 0.1 µM
  residual activity: 107%
MKNK2 (human); compound 1.0 µM
  residual activity: 102%
NEK2 (human); compound 0.01 µM
  residual activity: 112%
NEK2 (human); compound 0.1 µM
  residual activity: 93%
NEK2 (human); compound 1.0 µM
  residual activity: 95%
NEK6 (human); compound 0.01 µM
  residual activity: 102%
NEK6 (human); compound 0.1 µM
  residual activity: 90%
NEK6 (human); compound 1.0 µM
  residual activity: 91%
PAK7 (human); compound 0.01 µM
  residual activity: 95%
PAK7 (human); compound 0.1 µM
  residual activity: 91%
PAK7 (human); compound 1.0 µM
  residual activity: 72%
PIM2 (human)
  residual activity: 117%
PLK1 (human); compound 0.01 µM
  residual activity: 98%
PLK1 (human); compound 0.1 µM
  residual activity: 102%
PLK1 (human); compound 1.0 µM
  residual activity: 97%
PRKACA (human); compound 0.01 µM
  residual activity: 91%
PRKACA (human); compound 0.1 µM
  residual activity: 96%
PRKACA (human); compound 1.0 µM
  residual activity: 79%
RIPK2 (human); compound 0.01 µM
  residual activity: 77%
RIPK2 (human); compound 0.1 µM
  residual activity: 37%
RIPK2 (human); compound 1.0 µM
  residual activity: 8%
RPS6KA1 KD1 KD2 (human); compound 0.01 µM
  residual activity: 106%
RPS6KA1 KD1 KD2 (human); compound 0.1 µM
  residual activity: 91%
RPS6KA1 KD1 KD2 (human); compound 1.0 µM
  residual activity: 38%
RPS6KA3 KD1 KD2 (human); compound 0.01 µM
  residual activity: 100%
RPS6KA3 KD1 KD2 (human); compound 0.1 µM
  residual activity: 92%
RPS6KA3 KD1 KD2 (human); compound 1.0 µM
  residual activity: 54%
RPS6KA5 KD1 KD2 (human); compound 0.01 µM
  residual activity: 104%
RPS6KA5 KD1 KD2 (human); compound 0.1 µM
  residual activity: 105%
[2]; compound 0.01 µM
  residual activity: 88%
[2]; compound 0.1 µM
  residual activity: 99%
[2]; compound 1.0 µM
  residual activity: 93%
SRC (human); compound 0.01 µM
  residual activity: 45%
SRC (human); compound 0.1 µM
  residual activity: 9%
SRC (human); compound 1.0 µM
  residual activity: 3%
SYK (human); compound 0.01 µM
  residual activity: 112%
SYK (human); compound 0.1 µM
  residual activity: 104%
SYK (human); compound 1.0 µM
  residual activity: 100%
TTK (human); compound 0.01 µM
  residual activity: 100%
TTK (human); compound 0.1 µM
  residual activity: 92%
TTK (human); compound 1.0 µM
  residual activity: 75%
